These results are taken from article PMC7590976, “Detection of Active Granzyme A in NK92 Cells with Fluorescent Activity-Based Probe” (Journal of Medicinal Chemistry, 2020).

Test [1] deals with T1, GrK (Homo sapiens, UniProt P49863).
T1 construct: made in house; host or cells: Pichia pastoris
T1 sequence (P49863 27-264): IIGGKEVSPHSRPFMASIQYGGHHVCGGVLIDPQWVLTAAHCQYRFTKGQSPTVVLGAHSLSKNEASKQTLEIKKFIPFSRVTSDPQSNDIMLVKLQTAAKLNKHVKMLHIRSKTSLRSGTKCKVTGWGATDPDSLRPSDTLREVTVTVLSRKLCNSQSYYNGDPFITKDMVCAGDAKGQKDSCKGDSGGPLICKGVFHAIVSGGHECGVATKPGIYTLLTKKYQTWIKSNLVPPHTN
The experiment in a line: GrA substrate selectivity testing on GrK. In kind it is biochemical. As to conditions: 488 nM GrK. An excerpt: (§1) Since GrA and GrK are the most structurally similar Grs, they may recognize and hydrolyze the same natural and synthetic substrates. Therefore, we tested whether our new GrA substrates are also recognized by GrK or GrB (Figure 3A). For this experiment, we screened substrates SK8 to SK28 and a GrKref substrate (Ac-Tyr-Arg-Phe-Lys-ACC) or GrBref substrate (Ac-Ile-Glu-Pro-Asp-ACC) at the same concentration using a plate reader, and we monitored the increase in fluorescence over time. The linear portions of the diagram were analyzed, and as we expected, the majority of the substrates were well recognized by GrK, even better than their recognition by GrA. […] Based on that, we concluded that Tic-Gly-Oic-Arg is a leading sequence for a specific potent inhibitor and ABP for GrA.
(§2) Figure 3 (A) GrA substrate selectivity testing on GrK and GrB. Substrates SK8–SK28 and the reference GrK and GrB substrates were placed in a 96-well plate at a concentration of 200 μM and treated with GrK or GrB. […] Data present the average of 2 replicates as adjusted RFU/s.
(§3) Figure S2. Selectivity of SK15 substrate toward selected serine proteases (GrA, GrB, GrM, GrK,
(§4) PR3, and hNE). The reference substrates were as follows: Ac-Ile-Gly-Pro-Arg-ACC for GrA, Ac -Tyr-
Arg-Phe-Lys-ACC for GrK, Ac-Ile-Glu-Pro-Asp-ACC for GrB, Ac-Lys-Val-Pro-Leu-ACC for GrM, […]

For test [2], the target named is T2, GrB (Homo sapiens, UniProt P10144).
T2 construct: made in house; host or cells: Pichia pastoris
T2 sequence (P10144 21-247): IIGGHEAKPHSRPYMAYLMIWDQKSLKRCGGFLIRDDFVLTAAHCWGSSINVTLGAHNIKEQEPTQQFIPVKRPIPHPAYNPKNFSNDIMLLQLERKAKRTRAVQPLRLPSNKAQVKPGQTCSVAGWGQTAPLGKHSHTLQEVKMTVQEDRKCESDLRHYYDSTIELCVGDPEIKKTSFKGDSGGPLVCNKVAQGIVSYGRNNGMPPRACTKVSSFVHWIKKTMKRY
The experiment in a line: GrA substrate selectivity testing on GrB. The format is biochemical. As to conditions: substrate 200 μM (Fig 3A) or 67 μM, 18 nM GrB.
Excerpt: as §1, §2, §3, §4
(§5) Arg-Phe-Lys-ACC for GrK, Ac-Ile-Glu-Pro-Asp-ACC for GrB, Ac-Lys-Val-Pro-Leu-ACC for GrM,
(§6) Ac-Glu(O-Bzl)-Lys(Ac)-Hyp(Bzl)-Nva-ACC for PR3 and Ac-Arg(NO)2-Glu(Bzl)-Oic-Abu-ACC for hNE.
(§7) Substrates were placed in a 96-well plate at a concentration of 67 µM and treated with optimal
(§8) and emission wavelengths. Data present the average of 2 replicates as adjusted RFU/s.
Figure S3. Detection of active GrA in NK92 cells.
(also on this page, place not known: S K15 hNE) . Ac-Tyr- -Arg(NO)2-Glu(Bzl)-Oic-Abu-ACC ( 89 G rA cell s. reference reference SK15 reference SK15 reference SK15 reference SK15 reference SK15 0 50 100 substrate turnover, %RFU/s PR3GrMGrBGrK hNEGrA SK15 selectivity) […]

The test system of test [3] is GrA. Nature of the test: Screening of individual substrates SK7–SK28 with GrA. As to conditions: Figure 2A: substrate 1 μM, 89 nM enzyme (method b64: 67 μM, 583 nM GrA); adjusted RFU/s, average of 2 replicates. The format is biochemical, human. An excerpt:
Data present the average of 2 replicates as adjusted RFU/s. (B) Comparison of SK7 (blue) and SK15 (red) structures.

Test [4] has as its target T3, GrA (Homo sapiens, UniProt P12544).
T3 construct: made in house; host or cells: Pichia pastoris
T3 sequence (P12544 29-262): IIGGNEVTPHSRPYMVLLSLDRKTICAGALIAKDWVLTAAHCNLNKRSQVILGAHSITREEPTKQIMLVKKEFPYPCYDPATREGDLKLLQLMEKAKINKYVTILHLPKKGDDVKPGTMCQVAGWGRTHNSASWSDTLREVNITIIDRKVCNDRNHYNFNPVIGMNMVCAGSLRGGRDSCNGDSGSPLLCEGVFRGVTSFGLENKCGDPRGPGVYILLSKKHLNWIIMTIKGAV
Nature of the test: Steady-state Michaelis–Menten kinetics of fluorogenic ACC substrates with GrA. In kind it is biochemical. An excerpt: All chemical and biological reagents were purchased from commercial suppliers and used without further purification. The following reagents for solid phase peptide synthesis, Rink Amide RA resin (particle size 200–300 mesh, loading 0.74 mmol/g), 2-chlorotrityl chloride resin, Fmoc-protected amino acids, biotin, 1-[bis(dimethylamino)methylene]-1H-1,2,3-triazolo[4,5-b] pyridinium 3-oxid hexafluorophosphate (HATU), piperidine, diisopropylcarbodiimide (DICI), and trifluoroacetic acid (TFA), were purchased from Iris Biotech GmbH (Marktredwitz, Germany); anhydrous N-hydroxybenzotriazole (HOBt, purity >98%) was purchased from Creosauls; 2,4,6-collidine (2,4,6-trimethylpyridine), HPLC pure acetonitrile, and triisopropylsilane (TIPS) were purchased from Sigma-Aldrich (Poznan, Poland); and N,N-diisopropylethylamie (DIPEA) was purchased from VWR International (Gdansk, Poland). Solvents such as N,N-dimethylformamide (DMF), dichloromethane (DCM), methanol (MeOH), diethyl ether (Et2O), and acetic acid (AcOH) were purchased from Avantor (Gliwice, Poland). Cy5 was purchased from Lumiprobe GmbH (Hannover, Germany). Human neutrophil elastase was purchased from BioCentrum (Kraków, Poland) and proteinase 3 from Athens Research Technology (Athens, USA). Anti-GrA antibody (rabbit, monoclonal, ab209205) was obtained from Abcam (Cambridge, Great Britain). All cell lines were purchased from DSMZ (Braunschweig, Germany) or ATCC (Manassas, USA). All kinetic assays were performed using a Spectra Max Gemini XPS spectrofluorometer (Molecular Devices) on 96-well Corning plates. The parameters of the process were as follows: 37 °C; excitation/emission wavelength, 355/460 nm; cutoff, 455 nm; varying concentrations of substrates and enzyme. All measurements were performed in duplicate, and the data represent the average of these repetitions

Test [5] relates to granzyme M (GrM). The experiment in a line: Selectivity of SK15 substrate toward GrM. In kind it is biochemical, human. Particulars: Figure S2: substrate 67 µM, 74 nM GrM.
Excerpt: as §1, §3, §4, §5, §6, §7, §8
(§9) Figure S3. Detection of active GrA in NK92 cells. […]

In test [6] the test system is proteinase 3 (PR3). The experiment in a line: Selectivity of SK15 substrate toward PR3. The format is biochemical. Particulars: Figure S2: substrate 67 µM, 3.4 nM PR3.
Excerpt: as §1, §3, §4, §5, §6, §7, §8, §9

The subject of test [7] is human neutrophil elastase (hNE). Nature of the test: Selectivity of SK15 substrate toward hNE. In kind it is biochemical. Particulars: Figure S2: substrate 67 µM, 3.3 nM hNE.
Excerpt: as §1, §3, §4, §5, §6, §7, §8, §9

Where [8] appears, read: GrA 93 nM, assay buffer pH 7.5, 37 °C, ACC fluorescence 355/460 nm.

“And” between values parts separate entries of the source, which are not always exact repeats. Identical values can stand only once. “Also recorded” adds a separate entry of the source. Non-standard residues stand in square brackets, D forms with d. *: point of attachment. Oic = O=C(O)[C@@H]1C[C@@H]2CCCC[C@@H]2N1; ACC = NC(=O)Cc1cc(=O)oc2cc(N*)ccc12; Tic = O=C(O)[C@@H]1Cc2ccccc2CN1

As a reminder, the kcat is the number of substrate molecules converted per active site and unit of time at saturation. One may read the Km as the concentration of substrate that gives half-maximal velocity.

As for “Ac-[Tic]G[Oic]R-{ACC} (SMILES CC(=O)N1Cc2ccccc2C[C@H]1C(=O)NCC(=O)N1[C@H](C(=O)N[C@@H](CCCNC(=N)N)C(=O)Nc2ccc3c(CC(N)=O)cc(=O)oc3c2)C[C@@H]2CCCC[C@@H]21) [SK15]”, the “hydrolysis by GrK” value in test [1] (Figure 3A and S2, substrate 200 μM (Fig 3A) or 67 μM (Fig S2), adjusted RFU/s, 2 replicates) was 20%. For the same substance, in test [1] (substrate 200 μM (Fig 3A) or 67 μM), the “hydrolysis by GrK (in words)” value is reported as “barely hydrolyzed”. Also, the “hydrolysis by GrB (in words)” value in test [2] is “inactive; also recorded: not recognized”. The “hydrolysis of individual substrate by GrA (in words)” value in test [3] was “most active substrate”. Further, in test [4] (setting [8]), the kcat was determined as 0.27 ± 0.0029 s⁻¹; the kcat/KM was 3100 M^–1 s^–1 and 3100 ± 80 s^–1 M^–1. Also, in test [4] (GrA 93 nM, substrate 1000–7.81 μM, 50 mM Tris, 100 mM NaCl, 5 mM CaCl2, 0.01% Tween-20, pH 7.5, 37 °C, ACC fluorescence 355/460 nm, Michaelis–Menten nonlinear regression, duplicate), the Km came to 87.4 ± 1.3 µM. Further, the “GrA activity against the substrate relative to the reference sequence SK7” value in test [4] (ratio to SK7) was “approximately 40 fold”. In test [5], the “recognition by GrM (in words)” value is “not recognized”. In test [6], the “recognition by PR3 (in words)” value is on record as “not recognized”. In test [7], the “recognition by hNE (in words)” value is on record as “not recognized”.
